Measurements taken from ChEMBL document CHEMBL1158943, “Chemistry of Sponges, XI. 22-Deoxyvariabilin, a New Sesterterpene from the Sponge Thorecta sp” (J Nat Prod, 1991).
The source made the active and inactive calls.

Experiments:
Assay type in all cases: functional, organism-based
Bacillus subtilis = assay: Antimicrobial activity against Bacillus subtilis at 50 ug/disk by standard disk method
Staphylococcus aureus = assay: Antimicrobial activity against Staphylococcus aureus at 100 ug/disk by standard disk method
Candida albicans = assay: Antimicrobial activity against Candida albicans at 100 ug/disk by standard disk method

Measured: Activity

CC1=C/C(=C/[C@@H](C)CCC/C(C)=C/CC/C(C)=C/CCc2ccoc2)OC1=O
active: all assays above
